Results reported in patent US6506766B1 (Abbott Laboratories, priority 1998, dated 2003).
Like-named read-outs stand apart in the source and are kept apart here.

Molecular target: T1, human progesterone receptor-A [PRA] isoform (Homo sapiens, UniProt P06401)
T1 construct: host or cells: insect SF21 cells (baculovirus)
T1 sequence (P06401 1-769 isoform P06401-2): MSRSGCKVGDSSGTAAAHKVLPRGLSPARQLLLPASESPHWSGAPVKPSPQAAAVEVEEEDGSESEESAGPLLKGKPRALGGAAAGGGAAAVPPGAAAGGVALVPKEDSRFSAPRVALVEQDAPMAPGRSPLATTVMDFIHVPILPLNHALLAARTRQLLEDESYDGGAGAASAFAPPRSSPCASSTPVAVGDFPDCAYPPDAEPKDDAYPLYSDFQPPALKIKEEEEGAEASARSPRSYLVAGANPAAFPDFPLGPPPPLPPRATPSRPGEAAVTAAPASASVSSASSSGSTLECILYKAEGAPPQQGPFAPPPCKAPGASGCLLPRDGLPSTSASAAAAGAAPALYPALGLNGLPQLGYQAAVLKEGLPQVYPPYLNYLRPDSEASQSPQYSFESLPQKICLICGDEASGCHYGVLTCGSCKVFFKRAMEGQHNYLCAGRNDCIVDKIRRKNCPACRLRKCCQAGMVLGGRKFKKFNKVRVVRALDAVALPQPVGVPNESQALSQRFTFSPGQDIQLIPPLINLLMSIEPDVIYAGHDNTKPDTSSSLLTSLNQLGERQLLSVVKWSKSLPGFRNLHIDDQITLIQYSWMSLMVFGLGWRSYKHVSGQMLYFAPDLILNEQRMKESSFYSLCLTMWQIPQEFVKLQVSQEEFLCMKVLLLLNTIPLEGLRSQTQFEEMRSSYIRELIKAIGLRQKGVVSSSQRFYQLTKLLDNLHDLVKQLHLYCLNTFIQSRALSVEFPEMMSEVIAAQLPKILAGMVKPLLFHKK
Assay: Radioligand binding with human progesterone receptor cytosol ([3H]-progesterone competition)

[1] = PRA cytosol expressed in insect SF21 cells, [3H]Prog ~0.8 nM, 4° C. overnight, Ki by Cheng-Prusoff, KL ~4.5 nM, read-out: Ki (nM) PR

Structure (SMILES)	Ki [1]	Ki (Ki (nM) PR)
COc1cccc2c1-c1ccc3c(c1C(C1C=CCC1)O2)C(C)=CC(C)(C)N3 (racemic) [Example 136]	2700 nM	
COC(=O)CN(C)C(=O)Oc1cccc(C2Oc3cccc(OC)c3-c3ccc4c(c32)C(C)=CC(C)(C)N4)c1 (stereo not shown) [Example 311, 2,5-Dihydro-10-methoxy-5-(3-(N-methyl-N-(carbomethoxymethyl)aminocarbonyloxy)phenyl)-2,2,4-trimethyl-1H-[1]benzopyrano[3,4-f]quinoline]		≥ 10000 nM
C=CCC1Oc2cccc(Cl)c2-c2ccc3c(c21)C(C)=CC(C)(C)N3 (stereo not shown) [Example 309, 10-Chloro-5-(3-propenyl)-2,2,4-trimethyl-2,5-dihydro-1H-[1]benzopyrano[3,4-f]quinoline]	60.7 nM	
COc1cccc2c1-c1ccc3c(c1C(C)O2)C(C)=CC(C)(C)N3 (stereo not shown) [Example 57, 2,5-Dihydro-10-methoxy-2,2,4,5-tetramethyl-1H-[1]benzopyrano[3,4-f]quinoline]	4280 nM	
C=C(CC1Oc2cccc(OC)c2-c2ccc3c(c21)C(C)=CC(C)(C)N3)C(=O)OC (stereo not shown) [Example 173, 2,5-Dihydro-10-methoxy-5-(2-carbomethoxy-3-propenyl)-2,2,4-trimethyl-1H-[1]benzopyrano[3,4-f]quinoline]	≥ 10000 nM	
COc1cccc2c1-c1ccc3c(c1C(C1C=CCCCCC1)O2)C(C)=CC(C)(C)N3 (stereo not shown) [Example 143, 2,5-Dihydro-10-methoxy-5-(3-cyclooctenyl)-2,2,4-trimethyl-1H-[1]benzopyrano[3,4f]quinoline]	8100 nM	
CNc1cc(C)cc(C2Oc3cccc(OC)c3-c3ccc4c(c32)C(C)=CC(C)(C)N4)c1 (stereo not shown) [Example 114, 3-(2,5-Dihydro-10-methoxy-2,2,4-trimethyl-1H-[1]benzopyrano[3,4-f]quinolin-5-methyl)-5,N-dimethylbenzenamine]	≥ 10000 nM	
C=CCOc1ccc2c(c1OC)-c1ccc3c(c1C(CC=C)O2)C(C)=CC(C)(C)N3 (stereo not shown) [Example 293, 10-Methoxy-9-(3-propenyloxy)-5-(3-propenyl)-2,2,4-trimethyl-1H-2,5-dihydro[1]benzopyrano[3,4-f]quinoline]	3740 nM	
COc1cccc2c1-c1ccc3c(c1C(c1cc(Cl)cc(Cl)c1)O2)C(C)=CC(C)(C)N3 (stereo not shown) [Example 19, 5-(3,5-Dichlorophenyl)-2,5-dihydro-10-methoxy-2,2,4-trimethyl-1H-[1]benzopyrano[3,4-f]quinoline]	4970 nM	
COc1c(O)ccc2c1-c1ccc3c(c1C(c1ccc(F)c(F)c1)O2)C(C)=CC(C)(C)N3 (stereo not shown) [Example 254, 2,5-Dihydro-9-hydroxy-10-methoxy-2,2,4-trimethyl-5-(3,4-difluorophenyl)-1H-[1]benzopyrano[3,4-f]quinoline]	1820 nM	
COc1cccc2c1-c1ccc3c(c1C(C1CCCC1)O2)C(C)=CC(C)(C)N3 (stereo not shown) [Example 209, 2,5-Dihydro-10-methoxy-5-(cyclopentyl)-2,2,4-trimethyl-1H-[1]benzopyrano[3,4-f]quinoline]	5460 nM	
C=CC1Oc2cccc(OC)c2-c2ccc3c(c21)C(C)=CC(C)(C)N3 (stereo not shown) [Example 320, 2,5-Dihydro-10-methoxy-5-ethenyl-2,2,4-trimethyl-1H-[1]benzopyrano[3,4-f]quinoline]	3050 nM	
CC1=CC(C)(C)Nc2ccc3c(c21)C(c1ccccc1)Oc1ccc2c(c1-3)OCO2 (stereo not shown) [Example 227, 9-10-Methylenedioxy-5-phenyl-2,2,4-trimethyl-1H-2,5-dihydro-[1]benzopyrano[3,4-f]quinoline]	1930 nM	
COc1cccc2c1-c1ccc3c(c1C(C1C=CCCCC1)O2)C(C)=CC(C)(C)N3 (mixture of isomers) [Example 144]	≥ 10000 nM	
C#CCOc1cccc(C2Oc3cccc(OC)c3-c3ccc4c(c32)C(C)=CC(C)(C)N4)c1 (stereo not shown) [Example 92, 2,5-Dihydro-10-methoxy-2,2,4-trimethyl-5-[3-(2-propynyloxy)phenyl]-1H-[1]benzopyrano[3,4-f]quinoline]	≥ 10000 nM	
COc1cccc2c1-c1ccc3c(c1C(Cc1ccccc1)O2)C(C)=CC(C)(C)N3 (stereo not shown) [Example 53, 2,5-Dihydro-10-methoxy-2,2,4-trimethyl-5-(phenylmethyl)-1H-[1]benzopyrano[3,4-f]quinoline]	2910 nM	
COc1cccc2c1-c1ccc3c(c1C(CCO)O2)C(C)=CC(C)(C)N3 (stereo not shown) [Example 199, 2,5-Dihydro-10-methoxy-5-(2-hydroxyethyl)-2,2,4-trimethyl-1H-[1]benzopyrano[3,4-f]quinoline]	≥ 10000 nM	
COc1cccc2c1-c1ccc3c(c1C(C1CCCCC1)O2)C(C)=CC(C)(C)N3 (stereo not shown) [Example 212, 2,5-Dihydro-10-methoxy-5-(cyclohexyl)-2,2,4-trimethyl-1H-[1]benzopyrano[3,4-f]quinoline]	≥ 10000 nM	
C=CC(=C)CC1Oc2cccc(OC)c2-c2ccc3c(c21)C(C)=CC(C)(C)N3 (stereo not shown) [Example 172]	9900 nM	
C=C(Br)CC1Oc2cccc(OC)c2-c2ccc3c(c21)C(C)=CC(C)(C)N3 (stereo not shown) [Example 147, 2,5-Dihydro-10-methoxy-5-(2-bromo-3-propenyl)-2,2,4-trimethyl-1H-[1]benzopyrano[3,4-f]quinoline]	9300 nM	
COc1cccc2c1-c1ccc3c(c1C(c1cc(Cl)cc(Cl)c1)O2)C(C)=CC(C)(C)N3 (single isomer, unassigned; (+)) [Example 33, (+)-5-(3,5-Dichlorophenyl)-2,5-dihydro-10-methoxy-2,2,4-trimethyl-1H-[1]benzopyrano[3,4-f]quinoline]	8320 nM	
COc1cccc2c1-c1ccc3c(c1C(CCCO)O2)C(C)=CC(C)(C)N3 (stereo not shown) [Example 69, 2,5-Dihydro-10-methoxy-2,2,4-trimethyl-1H-[1]benzopyrano[3,4-f]quinoline-5-propanol]	17300 nM	

The next lines start with results.

Ki [1]	Structure (SMILES)	Ki (Ki (nM) PR)
22.8 nM	C=CCC1Oc2c(Br)cc(O)c(Cl)c2-c2ccc3c(c21)C(C)=CC(C)(C)N3 (stereo not shown) [Example 397, 2,5-Dihydro-7-bromo-9-hydroxy-10-chloro-2,2,4-trimethyl-5-allyl-1H-[1]benzopyrano[3,4-f]quinoline]	
1040 nM	COc1cccc2c1-c1ccc3c(c1C(=Cc1ccccc1)O2)C(C)=CC(C)(C)N3 (mixture of isomers) [Example 18, 2,5-Dihydro-10-methoxy-2,2,4-trimethyl-5-(phenylmethylene)-1H-[1]benzopyrano[3,4-f]quinoline]	
59.6 nM	CCC1([C@@H]2Oc3ccc(O)c(OC)c3-c3ccc4c(c32)C(C)=CC(C)(C)N4)CC=CCC1 (single isomer, unassigned; (-)) [Example 263]	
1700 nM	COc1cccc2c1-c1ccc3c(c1C(CC=C1CCCCCC1)O2)C(C)=CC(C)(C)N3 (stereo not shown) [Example 189, 2,5-Dihydro-10-methoxy-5-(2-cycloheptylidenylethyl)-2,2,4-trimethyl-1H-[1]benzopyrano[3,4-f]quinoline]	
192 nM	C=CCC1Oc2cccc(CO)c2-c2ccc3c(c21)C(C)=CC(C)(C)N3 (stereo not shown) [Example 329, 2,5-Dihydro-10-(2-hydroxymethyl)-5-(3-propenyl)-2,2,4-trimethyl-1H-[1]benzopyrano[3,4-f]quinoline]	
53 nM	C=CCC1Oc2cccc(C=O)c2-c2ccc3c(c21)C(C)=CC(C)(C)N3 (stereo not shown) [Example 330, 2,5-Dihydro-10-formyl-5-(3-propenyl)-2,2,4-trimethyl-1H-[1]benzopyrano[3,4-f]quinoline]	
970 nM	CCOC(=O)C1Oc2cccc(OC)c2-c2ccc3c(c21)C(C)=CC(C)(C)N3 (stereo not shown) [Example 208, 2,5-Dihydro-10-methoxy-5-(carboethoxy)-2,2,4-trimethyl-1H-[1]benzopyrano[3,4-f]quinoline]	
4.2 nM	CC1=CC(C)(C)Nc2ccc3c(c21)[C@H]([C@@H]1C=CCC1)Oc1ccc(O)c(Cl)c1-3 [Example 221, (−)2,5(S)-Dihydro-9-hydroxy-10-chloro-2,2,4-trimethyl-5-(3S-cyclopentenyl)-1H-[1]benzopyrano[3,4-f]quinoline]	
98 nM	COc1c(O)ccc2c1-c1ccc3c(c1/C(=C/c1ccccc1)O2)C(C)=CC(C)(C)N3 [Example 365, Z-5-(Benzylidenyl)-9-hydroxy-10-methoxy-2,2,4-trimethyl-1H-2,5-dihydro]	
386 nM	COc1c(O)ccc2c1-c1ccc3c(c1C(c1cccs1)O2)C(C)=CC(C)(C)N3 (stereo not shown) [Example 274, 2,5-Dihydro-9-hydroxy-10-methoxy-2,2,4-trimethyl-5-(2-thienyl)-1H-[1]benzopyrano[3,4-f]quinoline]	
7.6 nM	CC1=CC(C)(C)Nc2ccc3c(c21)/C(=C/c1cccc(F)c1)Oc1ccc(O)c(Cl)c1-3 [Example 367, Z-5-(3-Fluorobenzylidenyl)-10-chloro-9-hydroxy-2,2,4-trimethyl-2,5-dihydro-1H-[1]benzopyrano[3,4-f]quinoline]	
520 nM	COc1cccc2c1-c1ccc3c(c1[C@H]([C@@H]1C=CCC1)O2)C(C)=CC(C)(C)N3 [Example 390, (−)(5S,3′S)2,5-Dihydro-10-methoxy-2,2,4-trimethyl-5-(cyclopenten-3-yl)-1H-[1]benzopyrano[3,4-f]quinoline]	
